Test results published in ChEMBL document CHEMBL3817825, “Synthesis and biological evaluation of Schiff base-linked imidazolyl naphthalimides as novel potential anti-MRSA agents” (2016).
Values after ≈ are worked out from the molar mass of the structure shown. Active and inactive are the calls of the source. No cut-off for these calls is given here.

How the values were obtained:
Staphylococcus aureus [1] = experiment: Antibacterial activity against methicillin-resistant Staphylococcus aureus N315 after 24 hrs by two fold serial dilution method; assay type: functional; details: N315, 24 h
Staphylococcus aureus [2] = experiment: Antibacterial activity against Staphylococcus aureus ATCC25923 after 24 hrs by two fold serial dilution method; assay type: functional; details: ATCC25923, 24 h
Bacillus subtilis = experiment: Antibacterial activity against Bacillus subtilis ATCC6633 after 24 hrs by two fold serial dilution method; assay type: functional; details: ATCC6633, 24 h
Micrococcus luteus = experiment: Antibacterial activity against Micrococcus luteus ATCC4698 after 24 hrs by two fold serial dilution method; assay type: functional; details: ATCC4698, 24 h
Escherichia coli [3] = experiment: Antibacterial activity against Escherichia coli DH52 after 24 hrs by two fold serial dilution method; assay type: functional; details: DH52, 24 h
Escherichia coli [4] = experiment: Antibacterial activity against Escherichia coli JM109 after 24 hrs by two fold serial dilution method; assay type: functional; details: JM109, 24 h
Shigella dysenteriae = experiment: Antibacterial activity against Shigella dysenteriae after 24 hrs by two fold serial dilution method; assay type: functional
Pseudomonas aeruginosa = experiment: Antibacterial activity against Pseudomonas aeruginosa ATCC27853 after 24 hrs by two fold serial dilution method; assay type: functional; details: ATCC27853, 24 h
Bacillus [5] = experiment: Antibacterial activity against Bacillus proteus ATCC13315 after 24 hrs by two fold serial dilution method; assay type: functional; details: ATCC13315, 24 h
Salmonella typhi = experiment: Antibacterial activity against Bacillus typhi after 24 hrs by two fold serial dilution method; assay type: functional, Salmonella enterica subsp. enterica serovar Typhi; details: Salmonella enterica
Candida albicans = experiment: Antifungal activity against Candida albicans ATCC76615 after 24 hrs by two fold serial dilution method; assay type: functional; details: ATCC76615, 24 h
Candida = experiment: Antifungal activity against Candida mycoderma ATCC10231 after 24 hrs by two fold serial dilution method; assay type: functional; details: ATCC10231, 24 h
Cyberlindnera jadinii [6] = experiment: Antifungal activity against Candida utilis ATCC9950 after 24 hrs by two fold serial dilution method; assay type: functional; details: Williopsis jadinii, ATCC9950, 24 h
Aspergillus flavus = experiment: Antifungal activity against Aspergillus flavus ATCC204304 after 24 hrs by two fold serial dilution method; assay type: functional; details: ATCC204304, 24 h
Saccharomyces cerevisiae = experiment: Antifungal activity against Beer yeast ATCC9763 after 24 hrs by two fold serial dilution method; assay type: functional; details: ATCC9763, 24 h
Cyberlindnera jadinii [7] = experiment: Potency index, ratio of fluconazole MIC to compound MIC for Candida utilis ATCC9950; assay type: functional
Staphylococcus aureus [8] = experiment: Potency index, ratio of chloromycin MIC to compound MIC for methicillin-resistant Staphylococcus aureus N315; assay type: functional
Staphylococcus aureus [9] = experiment: Potency index, ratio of norfloxacin MIC to compound MIC for methicillin-resistant Staphylococcus aureus N315; assay type: functional
Staphylococcus aureus [10] = experiment: Antibacterial activity against methicillin-resistant Staphylococcus aureus N315 assessed as membrane permeabilization at 12 times MIC monitored for 2 hrs by propidium iodide staining method; assay type: functional, organism-based
Bacillus [11] = experiment: Antibacterial activity against Bacillus proteus ATCC13315 assessed as membrane permeabilization at 12 times MIC monitored for 2 hrs by propidium iodide staining method; assay type: functional, organism-based
Staphylococcus aureus [12] = experiment: Ratio of MIC for methicillin-resistant Staphylococcus aureus N315 after 10 passages to MIC for methicillin-resistant Staphylococcus aureus N315 before 10 passages; assay type: functional
Staphylococcus aureus [13] = experiment: Antibacterial activity against methicillin-resistant Staphylococcus aureus N315 at 0.5 times MIC after 10 passages by two fold serial dilution method; assay type: functional, organism-based
Staphylococcus aureus [14] = experiment: Bactericidal activity against methicillin-resistant Staphylococcus aureus N315 assessed as reduction in viable bacterial count at 6 times MIC within 1.5 hrs by time kill assay; assay type: functional
Calf thymus DNA [15] = experiment: Binding affinity to calf thymus DNA assessed as hypochromism at 260 nm at 0 to 9 X 10^-5 mol/L by UV-Vis spectroscopy; assay type: nucleic-acid assay; details: Bos taurus
Calf thymus DNA [16] = experiment: Binding affinity to calf thymus DNA at 260 nm by UV-Vis spectroscopy; assay type: nucleic-acid assay; details: Bos taurus
Calf thymus DNA [17] = experiment: Binding affinity to neutral red bound calf thymus DNA assessed as increase in absorption at 460 nm at 0 to 10.5 X 10^-5 mol/L by UV-Vis spectroscopy; assay type: nucleic-acid assay; details: Bos taurus

| SMILES | MIC (Staphylococcus aureus [1]) [µM] | MIC (Staphylococcus aureus [2]) [µM] | MIC (Bacillus subtilis) [µM] | MIC (Micrococcus luteus) [µM] | MIC (Escherichia coli [3]) [µM] | MIC (Escherichia coli [4]) [µM] | MIC (Shigella dysenteriae) [µM] | MIC (Pseudomonas aeruginosa) [µM] | MIC (Bacillus [5]) [µM] | MIC (Salmonella typhi) [µM] | MIC (Candida albicans) [µM] | MIC (Candida) [µM] | MIC (Cyberlindnera jadinii [6]) [µM] | MIC (Aspergillus flavus) [µM] | MIC (Saccharomyces cerevisiae) [µM] | other results |
| --- | --- | --- | --- | --- | --- | --- | --- | --- | --- | --- | --- | --- | --- | --- | --- | --- |
| CCCCCCCCCCn1c(CCCC)nc(Cl)c1/C=N/N1C(=O)c2cccc3c(N4CCOCC4)ccc(c23)C1=O | 30 (≈ 18.2 µg/mL) | 420 (≈ 255 µg/mL) | 30 (≈ 18.2 µg/mL) | 840 (≈ 509 µg/mL) | 420 (≈ 255 µg/mL) | 840 (≈ 509 µg/mL) | 0.1 (≈ 0.0606 µg/mL) | 420 (≈ 255 µg/mL) | 210 (≈ 127 µg/mL) | 0.84 (≈ 0.509 µg/mL) | 210 (≈ 127 µg/mL) | 210 (≈ 127 µg/mL) | 3 (≈ 1.82 µg/mL) | 210 (≈ 127 µg/mL) | 420 (≈ 255 µg/mL) | Ratio (Cyberlindnera jadinii [7]): 10 |
| CCCCc1nc(Cl)c(/C=N/N2C(=O)c3cccc4c(N5CCOCC5)ccc(c34)C2=O)n1Cc1ccc([N+](=O)[O-])cc1 | 3 (≈ 1.8 µg/mL) | 210 (≈ 126 µg/mL) | 210 (≈ 126 µg/mL) | 850 (≈ 511 µg/mL) | 420 (≈ 252 µg/mL) | 50 (≈ 30.1 µg/mL) | 0.11 (≈ 0.0661 µg/mL) | 50 (≈ 30.1 µg/mL) | 110 (≈ 66.1 µg/mL) | 0.11 (≈ 0.0661 µg/mL) | 3 (≈ 1.8 µg/mL) | 50 (≈ 30.1 µg/mL) | 10 (≈ 6.01 µg/mL) | 110 (≈ 66.1 µg/mL) | 420 (≈ 252 µg/mL) | Ratio (Staphylococcus aureus [8]): 17; Ratio (Staphylococcus aureus [9]): 7; Activity (Staphylococcus aureus [10]): Active; Activity (Bacillus [11]): Active; Ratio (Staphylococcus aureus [12]): <=100; Activity (Staphylococcus aureus [13]): Active; Activity (Staphylococcus aureus [14]): >3 log10CFU/ml; Activity (Calf thymus DNA [15]): Active; K (Calf thymus DNA [16]): 0.59 ×10⁴ L/mol; Activity (Calf thymus DNA [17]): Active |
